Measured values: PMC10111413 (ACS Infectious Diseases, 2023)
Converted amounts (≈) assume the structure as drawn. Where a SMILES comes first, the peptide text is derived from it. Bridges are numbered along the chain shown (N, C = ends). [ ]: non-standard residue; d: D form. The star is where a group is joined. ξ: configuration not given here. Hexanoyl(4ξ-Me) = CCC(C)CCC(=O)*; dOrn = NCCC[C@@H](N)C(=O)O; Orn = NCCC[C@H](N)C(=O)O

What was measured:
[1] = test system: E. coli ATCC 25922 mcr-1; type: cell-based; conditions: CLSI microbroth dilution, Mueller Hinton broth, 18 h at 37 °C, visual read-out, three technical replicates; mcr-1 colistin resistance plasmid
Description: (§1) The antibacterial activities of relacidine A (3a) and B (4a), along with diastereomers 3b and 4b–d and relacidamide (5), were assessed using a standard microbroth dilution assay to establish minimum inhibitory concentration (MIC) values against a panel of Gram-negative bacteria (Table 1). The MIC values measured for synthetic relacidine A (3a) and B (4a) agree well with those previously published.[9] […] Relacidine A (3a) and B (4a), as well as relacidamide (5), were further tested against a panel of colistin-resistant A. baumannii clinical isolates, which confirmed their ability to prevent the growth of colistin-resistant isolates (Supplemental Table S2). […] Also of interest was the finding that while relacidine B (4a) induced <1% hemolysis, a substitution of either the L-Ala or L-Ser to D-Ala or D-Ser increased hemolytic activity to 8–12%. […] The greater hydrolytic stability of relacidine B would appear to be attributable to the increased steric bulk of the Ala side chain next to the ester linkage (compared with the methylene of Gly in relacidine A), which may hinder the nucleophilic attack of water at the ester carbonyl.
(§2) Colistin sulfate was purchased from Activate Scientific. Kanamycin monosulfate was purchased from MP Biomedicals. E. coli ATCC 25922, S. aureus USA300 (ATCC BAA1717), and K. pneumoniae ATCC 13883 belong to the American Type Culture Collection (ATCC). P. aeruginosa PAO1 was kindly provided by L.H.C. Quarles Van Ufford of Utrecht University, Utrecht, The Netherlands. E. coli ATCC 25922 MCR-1 was transfected in-house using the pGDP2-MCR1 plasmid kindly provided by Yong-Xin Li of The University of Hong Kong, Hong Kong, China. Sheep blood agar plates (ref. PB5039A) were purchased from Thermo Scientific. Tryptic soy broth (ref. 02-200-500) was purchased from Scharlab. Mueller-Hinton broth (ref. X927.1) was purchased from Carl Roth. Polypropylene 96-wells plates (ref. 3879) were purchased from Corning.
(§3) MICs were determined according to Clinical and Standards Laboratory Institute (CLSI) guidelines. Blood agar plates were inoculated with glycerol stocks of E. coli ATCC 25922, K. pneumoniae ATCC 13883, P. aeruginosa PAO1, and S. aureus USA300. The inoculated agar plates were then incubated for 16 h at 37 °C. Individually grown colonies were subsequently used to inoculate 5 mL aliquots of tryptic soy broth (TSB) that were then incubated at 37 °C with shaking at 220 rpm. E. coli 25922 MCR-1 glycerol stock was used to inoculate 5 mL of TSB supplemented with kanamycin that was then incubated for 16 h at 37 °C with shaking at 220 rpm. The next day, the culture was diluted 100-fold in TSB supplemented with kanamycin and incubated at 37 °C with shaking at 220 rpm. In parallel, the lipopeptide antibiotic DMSO stocks to be assessed were serially diluted with Mueller Hinton broth (MHB) in polypropylene 96-well plates (50 μL in each well). Colistin sulfate stocks were dissolved in water before being diluted with MHB. Aliquots of the inoculated TSB were incubated until an OD600 of around 0.5 was reached. The bacterial suspensions were then diluted with MHB (2 × 10^5 cfu mL^–1) and added to the microplates containing the test compounds (50 μL to each well). The well plates were sealed with an adhesive membrane, and after 18 h of incubation at 37 °C with shaking at 600 rpm, the wells were visually inspected for bacterial growth. MIC values reported are based on three technical replicates and defined as the lowest concentration of the compound that prevented visible growth of bacteria.

[2] = test system: E. coli ATCC 25922; type: cell-based; conditions: ATCC 25922, 18 h
Description: as §1, §2, §3

[3] = test system: K. pneumoniae ATCC 13883; type: cell-based; conditions: ATCC 13883, 18 h
Description: as §1, §2, §3

[4] = test system: P. aeruginosa PAO1; type: cell-based; conditions: PAO1, 18 h
Description: as §1, §2, §3

[5] = test system: S. aureus USA300; type: cell-based; conditions: USA300, 18 h
Description: as §1, §2, §3

[6] = test system: A. baumannii ATCC 17978; type: cell-based; conditions: ATCC 17978, 18 h
Description: (§4) VIII. Antimicrobial testing
(§5) Table S2. Minimum inhibitory concentrations (MICs) determined against panel of previously characterized colistin-resistant A. baumannii clinical isolates5
(§6) Strain Relacidine A (3a) Relacidine B (4a) Relacidamide (5) Colistin […]
(§7) aMIC values given in µg/ml.
(§8) All minimum inhibitory concentrations were determined according to Clinical and Standards Laboratory Institute (CLSI) guidelines. Blood agar plates were inoculated from glycerol stocks of the different A. baumannii strains used and then incubated for 16 h at 37 °C . Individually grown colonies were subsequently used to inoculate 5 mL aliquots of TSB that were then incubated at 37 °C. In parallel, the lipopeptide antibiotics DMSO stocks to be assessed were serially diluted with cation-adjusted MHB in polypropylene 96-well plates (50 µL in each well). Colistin sulfate stocks were dissolved in water before being diluted with cation-adjusted MHB. The A. baumannii inoculated TSB aliquots were incubated until an OD600 of around 0.5 was reached. The bacterial suspensions were then diluted with cation-adjusted MHB (2 x 10^5 CFU mL-1) and added to the microplates containing the test compounds (50 µL to each well). The well-plates were sealed with an adhesive membrane and after 18 h of incubation at 37 °C visually inspected for bacterial growth. MIC values reported are based on three technical replicates and defined as the lowest concentration of the compound that prevented visible

[7] = test system: A. baumannii BV172; type: cell-based; conditions: BV172, 18 h
Description: as §4, §5, §6, §7, §8

[8] = test system: A. baumannii BV173; type: cell-based; conditions: BV173, 18 h
Description: as §4, §5, §6, §7, §8

[9] = test system: A. baumannii BV94; type: cell-based; conditions: BV94, 18 h
Description: as §4, §5, §6, §7, §8

[10] = test system: A. baumannii BV95; type: cell-based; conditions: BV95, 18 h
Description: as §4, §5, §6, §7, §8

[11] = test system: A. baumannii HUMC1; type: cell-based; conditions: HUMC1, 18 h
Description: as §4, §5, §6, §7, §8

[12] = test system: A. baumannii LAC-4; type: cell-based; conditions: LAC-4, 18 h
Description: as §4, §5, §6, §7, §8

[13] = test system: A. baumannii NCTC 13304; type: cell-based; conditions: NCTC 13304, 18 h
Description: as §4, §5, §6, §7, §8

[14] = test system: A. baumannii NCTC 13420; type: cell-based; conditions: NCTC 13420, 18 h
Description: as §4, §5, §6, §7, §8

[15] = human serum (obtained from Sigma Aldrich, product number: H4522); conditions: 37 °C, up to 24 h

| Compound | MIC E. coli ATCC 25922 mcr-1 [1] [µg/mL] | MIC E. coli ATCC 25922 [2] [µg/mL] | MIC K. pneumoniae ATCC 13883 [3] [µg/mL] | MIC P. aeruginosa PAO1 [4] [µg/mL] | MIC S. aureus USA300 [5] [µg/mL] | MIC A. baumannii ATCC 17978 [6] [µg/mL] | MIC A. baumannii BV172 [7] [µg/mL] | MIC A. baumannii BV173 [8] [µg/mL] | MIC A. baumannii BV94 [9] [µg/mL] | MIC A. baumannii BV95 [10] [µg/mL] | MIC A. baumannii HUMC1 [11] [µg/mL] | MIC A. baumannii LAC-4 [12] [µg/mL] | MIC A. baumannii NCTC 13304 [13] [µg/mL] | MIC A. baumannii NCTC 13420 [14] [µg/mL] | not cleaved [15] |
| --- | --- | --- | --- | --- | --- | --- | --- | --- | --- | --- | --- | --- | --- | --- | --- |
| CCC(C)CCC(=O)N[C@H](CO)C(=O)N[C@H](Cc1ccc(O)cc1)C(=O)N[C@H](Cc1c[nH]c2ccccc12)C(=O)N[C@H](CCCN)C(=O)N[C@@H](CCCN)C(=O)NCC(=O)N[C@H](CCCN)C(=O)N[C@@H](Cc1c[nH]c2ccccc12)C(=O)N[C@@H]1C(=O)N[C@@H]([C@@H](C)CC)C(=O)NCC(=O)N[C@@H](CO)C(=O)NCC(=O)O[C@@H]1C (stereo partly shown) [3a, Relacidine A] ({Hexanoyl(4ξ-Me)}-[dS][dY][dW][dOrn][Orn]G[dOrn]WTIGSG; ester 9-C) | 2 to 4 | 2 (≈ 1.29 µM) | 4 (≈ 2.58 µM) | 4 (≈ 2.58 µM) | >32 | 8 (≈ 5.16 µM) | 16 (≈ 10.3 µM) | 8 (≈ 5.16 µM) | 8 (≈ 5.16 µM) | 8 (≈ 5.16 µM) | 16 (≈ 10.3 µM) | 4 (≈ 2.58 µM) | 4 (≈ 2.58 µM) | 8 (≈ 5.16 µM) | – |
| CCC(C)CCC(=O)N[C@H](CO)C(=O)N[C@H](Cc1ccc(O)cc1)C(=O)N[C@H](Cc1c[nH]c2ccccc12)C(=O)N[C@H](CCCN)C(=O)N[C@@H](CCCN)C(=O)NCC(=O)N[C@H](CCCN)C(=O)N[C@@H](Cc1c[nH]c2ccccc12)C(=O)N[C@@H]1C(=O)N[C@@H]([C@@H](C)CC)C(=O)NCC(=O)N[C@H](CO)C(=O)NCC(=O)O[C@@H]1C (stereo partly drawn) [3b, D-Ser12-Relacidine A] ({Hexanoyl(4ξ-Me)}-[dS][dY][dW][dOrn][Orn]G[dOrn]WTIG[dS]G; ester 9-C) | 4 (≈ 2.58 µM) | 2 to 4 | 4 (≈ 2.58 µM) | 2 (≈ 1.29 µM) | >32 | – | – | – | – | – | – | – | – | – | – |
| CCC(C)CCC(=O)N[C@H](CO)C(=O)N[C@H](Cc1ccc(O)cc1)C(=O)N[C@H](Cc1c[nH]c2ccccc12)C(=O)N[C@H](CCCN)C(=O)N[C@@H](CCCN)C(=O)NCC(=O)N[C@H](CCCN)C(=O)N[C@@H](Cc1c[nH]c2ccccc12)C(=O)N[C@@H]1C(=O)N[C@@H]([C@@H](C)CC)C(=O)NCC(=O)N[C@@H](CO)C(=O)N[C@@H](C)C(=O)O[C@@H]1C (stereo partly shown) [4a, Relacidine B] ({Hexanoyl(4ξ-Me)}-[dS][dY][dW][dOrn][Orn]G[dOrn]WTIGSA; ester 9-C) | 2 (≈ 1.28 µM) | 1 (≈ 0.639 µM) | 4 (≈ 2.56 µM) | 4 (≈ 2.56 µM) | >32 | 4 (≈ 2.56 µM) | 16 (≈ 10.2 µM) | 16 (≈ 10.2 µM) | 16 (≈ 10.2 µM) | 8 (≈ 5.12 µM) | 8 (≈ 5.12 µM) | 8 (≈ 5.12 µM) | 4 (≈ 2.56 µM) | 16 (≈ 10.2 µM) | – |
| CCC(C)CCC(=O)N[C@H](CO)C(=O)N[C@H](Cc1ccc(O)cc1)C(=O)N[C@H](Cc1c[nH]c2ccccc12)C(=O)N[C@H](CCCN)C(=O)N[C@@H](CCCN)C(=O)NCC(=O)N[C@H](CCCN)C(=O)N[C@@H](Cc1c[nH]c2ccccc12)C(=O)N[C@@H]1C(=O)N[C@@H]([C@@H](C)CC)C(=O)NCC(=O)N[C@@H](CO)C(=O)N[C@H](C)C(=O)O[C@@H]1C (stereo partly drawn) [4b, D-Ala13, L-Ser12-Relacidine B] ({Hexanoyl(4ξ-Me)}-[dS][dY][dW][dOrn][Orn]G[dOrn]WTIGS[dA]; ester 9-C) | 2 to 4 | 2 (≈ 1.28 µM) | 4 (≈ 2.56 µM) | 4 (≈ 2.56 µM) | >32 | – | – | – | – | – | – | – | – | – | – |
| CCC(C)CCC(=O)N[C@H](CO)C(=O)N[C@H](Cc1ccc(O)cc1)C(=O)N[C@H](Cc1c[nH]c2ccccc12)C(=O)N[C@H](CCCN)C(=O)N[C@@H](CCCN)C(=O)NCC(=O)N[C@H](CCCN)C(=O)N[C@@H](Cc1c[nH]c2ccccc12)C(=O)N[C@@H]1C(=O)N[C@@H]([C@@H](C)CC)C(=O)NCC(=O)N[C@H](CO)C(=O)N[C@@H](C)C(=O)O[C@@H]1C (stereo partly drawn) [4c, L-Ala13, D-Ser12-Relacdine B] ({Hexanoyl(4ξ-Me)}-[dS][dY][dW][dOrn][Orn]G[dOrn]WTIG[dS]A; ester 9-C) | 1 to 2 | 1 to 2 | 2 to 4 | 4 (≈ 2.56 µM) | >32 | – | – | – | – | – | – | – | – | – | – |
| CCC(C)CCC(=O)N[C@H](CO)C(=O)N[C@H](Cc1ccc(O)cc1)C(=O)N[C@H](Cc1c[nH]c2ccccc12)C(=O)N[C@H](CCCN)C(=O)N[C@@H](CCCN)C(=O)NCC(=O)N[C@H](CCCN)C(=O)N[C@@H](Cc1c[nH]c2ccccc12)C(=O)N[C@@H]1C(=O)N[C@@H]([C@@H](C)CC)C(=O)NCC(=O)N[C@H](CO)C(=O)N[C@H](C)C(=O)O[C@@H]1C (stereo partly drawn) [4d, D-Ala13, D-Ser12-Relacdine B] ({Hexanoyl(4ξ-Me)}-[dS][dY][dW][dOrn][Orn]G[dOrn]WTIG[dS][dA]; ester 9-C) | 2 to 4 | 2 (≈ 1.28 µM) | 2 to 4 | 8 (≈ 5.12 µM) | >32 | – | – | – | – | – | – | – | – | – | – |
| D-Ser1 D-Tyr2 D-Trp3 D-Orn4 Orn5 Gly6 D-Orn7 Trp8 Thr9 Ile10 Gly11 Ser12 Ala13 Lipid | – | – | – | – | – | – | – | – | – | – | – | – | – | – | highly resistant to degradation in human serum even after 24 h of incubation |
